Where two headings read alike, the source gives them in different places.
Columns and labels:
HCT116/VM46 = experiment: Cytotoxicity against HCT116/VM46 cell line (multi-drug resistant variant); assay type: cell-based, human
Source text: (§1) The results of the initial evaluation for cytotoxicity against various cancer cell lines of analogues 38a-f, along with those for 1, 36 and intermediate alcohol 35 are summarized in Table A. L1210 is a murine lymphocytic leukemia cell line. HCT116 and HCT116/VM46 are human colon cancer cell lines, with the latter being a multi-drug resistant variant of the former. MCF-7 is a human breast cancer cell line.

MCF-7 = experiment: Cytotoxicity against MCF-7 cell line; assay type: cell-based, human
Source text: as §1

HCT116 = experiment: Cytotoxicity against HCT116 cell line; assay type: cell-based, human
Source text: as §1

L1210 = experiment: Cytotoxicity against L1210 cell line; assay type: cell-based; conditions: Mus musculus, murine lymphocytic leukemia cell line
Source text: as §1

[1] = HCT-116/VM46, multi-drug resistant human colon cancer cell line, read-out: Cell Line (IC50, nM) HCT116/ VM46
[2] = MCF7, human breast cancer cell line, read-out: Cell Line (IC50, nM) MCT-7
[3] = HCT-116, human colon cancer cell line, read-out: Cell Line (IC50, nM) HCT116

| SMILES | IC50 (HCT116/VM46; [1]) [nM] | IC50 (MCF-7; [2]) [nM] | IC50 (HCT116; [3]) [nM] | IC50 (L1210) [nM] | fold less potent than 1 (HCT116; relative to meayamycin (1), cell line not given) [fold] | IC50 (HCT116/VM46; Homo sapiens, HCT-116/VM46, read-out: Cell Line (IC50, nM) HCT116/ VM46) [nM] | IC50 (MCF-7; Homo sapiens, MCF7, read-out: Cell Line (IC50, nM) MCT-7) [nM] | IC50 (HCT116; Homo sapiens, HCT-116, read-out: Cell Line (IC50, nM) HCT116) [nM] |
| --- | --- | --- | --- | --- | --- | --- | --- | --- |
| CC(/C=C/[C@H]1OC(C)(C)C[C@@]2(CO2)[C@@H]1O)=C\C[C@@H]1O[C@H](C)[C@H](NC(=O)/C=C\[C@H](C)O)C[C@@H]1C [Compound 35] | 7.4 | 47 | 9.7 | 7.8 |  |  |  |  |
| CC(/C=C/[C@H]1OC(C)(C)C[C@@]2(CO2)[C@@H]1O)=C\C[C@@H]1O[C@H](C)[C@H](NC(=O)/C=C\[C@H](C)OC(=O)N2CCN(C)CC2)C[C@@H]1C [Compound 36] | 840 | 930 | 630 | 790 |  |  |  |  |
| CC(/C=C/[C@H]1OC(C)(C)C[C@@]2(CO2)[C@@H]1O)=C\C[C@@H]1O[C@H](C)[C@H](NC(=O)/C=C\[C@H](C)OC(=O)N2CCSCC2)C[C@@H]1C [Compound 38b] | 0.52 | 0.42 | 0.48 | 0.6 |  |  |  |  |
| CC(/C=C/[C@H]1OC(C)(C)C[C@@]2(CO2)[C@@H]1O)=C\C[C@@H]1O[C@H](C)[C@H](NC(=O)/C=C\[C@H](C)OC(=O)N2CCCCC2)C[C@@H]1C [Compound 38c] | 0.59 | 2.7 | 0.68 | 0.44 |  |  |  |  |
| CC(/C=C/[C@H]1OC(C)(C)C[C@@]2(CO2)[C@@H]1O)=C\C[C@@H]1O[C@H](C)[C@H](NC(=O)/C=C\[C@H](C)OC(=O)N(C)C)C[C@@H]1C [Compound 38d] | 0.53 | 0.39 | 0.54 | 0.58 |  |  |  |  |
| CC(/C=C/[C@H]1OC(C)(C)C[C@@]2(CO2)[C@@H]1O)=C\C[C@@H]1O[C@H](C)[C@H](NC(=O)/C=C\[C@H](C)OC(=O)c2ccccc2)C[C@@H]1C [Compound 38e] | 0.65 | 2.4 | 0.72 | 1.8 |  |  |  |  |
| CC(/C=C/[C@H]1OC(C)(C)C[C@@]2(CO2)[C@@H]1O)=C\C[C@@H]1O[C@H](C)[C@H](NC(=O)/C=C\[C@H](C)OC(=O)C(C)(C)C)C[C@@H]1C [Compound 38f] | 2.4 |  | 3.5 | 1.2 | 5 |  |  |  |
| CC(=O)O[C@@H](C)/C=C\C(=O)N[C@@H]1C[C@H](C)[C@H](C/C=C(C)/C=C/[C@H]2OC(C)(C)C[C@@]3(CO3)[C@@H]2O)O[C@@H]1C [Meayamycin (1), Meayamycin, reference compound] | 0.51 | 0.31 | 0.56 | 0.54 |  |  |  |  |
| CC(/C=C/[C@H]1OC(C)(C)C[C@@]2(CO2)[C@@H]1O)=C\C[C@@H]1O[C@H](C)[C@H](NC(=O)/C=C\[C@H](C)OC(=O)N2CCOCC2)C[C@@H]1C [Meayamycin B (38a), Meayamycin B] |  |  |  |  |  | 0.55 | 0.39 | 0.49 |
